Test results from publication PMC8333425, “Discovery of a dual Ras and ARF6 inhibitor from a GPCR endocytosis screen” (Nature Communications, 2021).
≈ marks a conversion by molar mass, not a printed value.

Tests used:
[1] = Maximal solubility concentration; format: physicochemical
H-Ras = H-Ras (Homo sapiens, UniProt P01112); assay: In vitro mant-GTP exchange assay, purified H-Ras with purified SOS1; format: biochemical; set-up: the cDNA of H-Ras (full length) was obtained by RT-PCR of HEK293SL; GST (N); host or cells: E. coli BL21
Protocol: Ras activity was assessed in a 384-well black bottom plate using the mant-GTP exchange factor assay that measures the uptake of the fluorescent nucleotide analog N-methylanthraniloyl-GTP (mant-GTP) into GTPases. For Ras activation, 2X exchange buffer, 1.66 μg of purified pGEX-6P-1-H-Ras or pGEX-6P-1-K-Ras-WT or pGEX-6P-1-K-Ras-Y32A were added per well in presence of DMSO, different concentrations of Rasarfin (as indicated) or 50 µM of compounds 21.4, 21.7, or 21.8. Using the Infinite 200 Pro plate reader (Tecan) with filters set at 360 nm and 440 nm for detecting the excitation and emissions, respectively, and temperature set at 20 °C, 5 readings were recorded every 5 s before the addition of either H2O, 40 mM EDTA or 0.66 μg purified SOS1. The fluorescence of mant-GTP uptake was measured every 30 sec for 30 min and quantified as the delta relative fluorescence units (RFU), which was calculated as the RFU post-addition minus the 5 averaged RFU pre-addition, per condition.

MDA-MB-231 cells = assay: Cell proliferation assay (IncuCyte confluence), MDA-MB-231; format: cell-based, human
Protocol: Cell proliferation was measured by a label-free, non-invasive cellular confluence assay using IncuCyte Live-Cell Imaging Systems (Essen Bioscience, Ann Arbor, MI, USA). MDA-MB-231 breast cancer and A549 lung carcinomas cells (1500 cells in 150 μl/well) were seeded overnight on a clear 96-well plate. Twenty-four hours later, the cells were treated with 0.1% DMSO, or different concentrations of Rasarfin (as indicated), or 10 µM of 21.4 or 21.8 for 96 h total. The plate was placed in an XL-3 incubation chamber maintained at 37 °C and the cells were photographed using a ×4 objective, every 3 h for 4 days. Cell confluence was calculated using IncuCyte S3 software (2019A) and cell proliferation was expressed as an increase in the percentage of confluence. Experiments were done in triplicate and repeated three times.

H-Ras, sequence (P01112 whole entry): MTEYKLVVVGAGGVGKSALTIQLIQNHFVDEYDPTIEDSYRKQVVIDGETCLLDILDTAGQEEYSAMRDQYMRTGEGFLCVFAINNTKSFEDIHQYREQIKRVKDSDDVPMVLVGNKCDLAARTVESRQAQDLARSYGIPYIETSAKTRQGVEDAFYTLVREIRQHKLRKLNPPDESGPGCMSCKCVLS

Nn1cnc2scc(-c3ccc(Cc4ccccc4)cc3)c2c1=O [Barbadin, reference compound]
maximal solubility concentration [1]: 100 µM

CCCC(=O)N1CCN(c2ccc(NC(=O)c3cc4ccccc4o3)cc2Cl)CC1 [Compound 21.8]
Ras exchange activity, mant-GTP loading into H-Ras with SOS1 (Fig. 8c) (H-Ras; 50 μM): inhibited Ras exchange activity | MDA-MB-231 cell proliferation (confluency) (MDA-MB-231 cells; 10 µM): inhibited cell proliferation

CC(C)C(=O)N1CCN(c2ccc(NC(=O)c3cc4ccccc4o3)cc2Cl)CC1 [Compound 21]
solubility ([1]; DMSO, organic solvent or mixture, read-out: maximum solubility concentration in DMSO): ~50 µM (≈ 21.3 µg/mL) | uptake of mant-GTP into purified H-Ras in presence of SOS1 (H-Ras; different concentrations): inhibited in a dose-dependent manner the uptake of GTP into Ras | MDA-MB-231 cell growth (confluency) (MDA-MB-231 cells; various concentrations of Rasarfin): dose-dependent reduction in cell growth over time
